{"source": "patent US20020147136A1", "about": "“Compounds for targeting endothelial cells, compositions containing the same and methods for their use” (priority 2000, published 2002)", "key": {"NP-1/Fc": {"test_system": "NP-1/Fc", "assay": "Inhibition of 125I-VEGF165 binding to NP-1/Fc", "procedure": "The ability of various compositions comprising TKPPR monomers or multimers to inhibit ^125I-VEGF binding to NP-1 was evaluated using NP-1/Fc. Competitive binding assays with microtiter plates coated with NP-1/Fc (R&D sytems) were performed using ^125I-VEGF165 as radioligand (Amersham Pharmacia Biotech Cat. No. IM274, Specific Activity: 1000-2500 Ci/mmol). […] Plates (Nunc MaxiSorp white opaque Microtiter plate [C-bottom, 437796]) were coated by incubating the wells with 75 µl of a solution containing 3 μlg/mL NP-1/Fc in D-PBS/0.1% NaAzide overnight at 4° C. after covering with sealing tape (Dynex, VWR Cat. No. 62402-931). […] All points were derived from triplicate wells, and for each set of replicates in NP-1/Fc-coated wells, a companion set in the absence of the receptor was included. For competitive binding, a series of unlabelled competitor concentrations were prepared in a 250 pM solution of ^1251-VEGF165 in assay buffer Solutions were added to 1.2 ml polypropylene tubes conforming to the microtiter format (Costar Cat. No. 29442-602), and transferred from these tubes to microtiter wells, without further dilution, using a multichannel pipettor. After addition of the appropriate solutions, microtiter plates were incubated at 4° C. for 2 hours. […] The plates were blotted dry and 25 μl deionized water and 100 μl scintillation fluid (Optiphase SuperMix, Wallac) were added to each well. Plates were agitated using a Plate Shaker (Hyperion, Cat. No. 4030-100F) for 3-5 minutes and were then counted using a Microplate Scintillation Counter (Wallac Microbeta Trilux) A set of serially diluted 125I-VEGF165 standard wells ranging from 200 to 0.04 pM were included with each experiment to aid in quantification of the amount of radiolabel bound."}, "KDR-Fc": {"target": "T1, KDR-Fc (Homo sapiens, UniProt P35968)", "T1 construct": "purchased R&D Systems", "T1 sequence (P35968 with tags, fused parts or gaps limits assumed)": "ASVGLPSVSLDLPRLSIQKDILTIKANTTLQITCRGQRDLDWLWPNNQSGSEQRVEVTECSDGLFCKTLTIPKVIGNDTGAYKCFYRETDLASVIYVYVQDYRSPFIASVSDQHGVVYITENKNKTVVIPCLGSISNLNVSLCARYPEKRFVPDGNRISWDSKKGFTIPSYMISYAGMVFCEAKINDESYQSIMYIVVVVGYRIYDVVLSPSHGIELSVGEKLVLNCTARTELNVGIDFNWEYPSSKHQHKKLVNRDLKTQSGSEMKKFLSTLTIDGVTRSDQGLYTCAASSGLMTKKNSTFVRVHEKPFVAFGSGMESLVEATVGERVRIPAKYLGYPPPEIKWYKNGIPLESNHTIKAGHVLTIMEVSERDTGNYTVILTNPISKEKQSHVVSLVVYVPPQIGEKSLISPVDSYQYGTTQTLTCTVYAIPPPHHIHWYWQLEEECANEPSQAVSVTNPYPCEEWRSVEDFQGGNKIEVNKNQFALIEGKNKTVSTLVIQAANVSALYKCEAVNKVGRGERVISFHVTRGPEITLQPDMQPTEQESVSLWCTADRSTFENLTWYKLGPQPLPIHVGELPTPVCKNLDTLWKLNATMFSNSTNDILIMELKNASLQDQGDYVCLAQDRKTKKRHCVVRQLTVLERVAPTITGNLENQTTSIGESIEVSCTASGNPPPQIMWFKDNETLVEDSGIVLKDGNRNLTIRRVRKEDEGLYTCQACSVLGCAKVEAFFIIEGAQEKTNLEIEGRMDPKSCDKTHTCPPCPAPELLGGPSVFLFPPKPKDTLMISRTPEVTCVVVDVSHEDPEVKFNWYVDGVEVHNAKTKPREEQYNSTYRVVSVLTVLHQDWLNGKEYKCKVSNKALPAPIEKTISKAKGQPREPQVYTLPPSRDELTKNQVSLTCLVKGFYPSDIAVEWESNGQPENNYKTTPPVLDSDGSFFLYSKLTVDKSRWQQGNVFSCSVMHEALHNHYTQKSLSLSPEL", "assay": "Inhibition of 125I-VEGF165 binding to KDR-Fc", "settings": "at the highest concentrations tested"}, "Neuropilin-1/Fc": {"target": "Neuropilin-1/Fc", "assay": "Fluorescence polarization binding to NP-1/Fc", "settings": "Oregon Green-labeled ligand 5-20 nM, 37° C., D-PBS pH 7.4; different experiments", "procedure": "The ability of various compositions comprising TKPPR monomers or multimers to bind to NP-1/Fc and KDR-Fc was evaluated using FP. The binding studies of various Oregon Green (OG)-labeled compounds comprising TKPPR monomers or multimers and related compounds with Neuropilin-1/Fc, and KDR-Fc (both from R&D Systems), were carried out at 37° C. in D-PBS buffer (pH 7.4). FP values (mP) for each substrate was measured by titrating the ligand (5-20 nM) with receptor protein using a Jolley Research and Consulting FPM-1 fluorescence Polarization analyzer. In each of these experiments the observed polarization values were plotted against receptor concentration. The mP values for 100% binding of tracer labeled ligand to receptor protein was calculated using the software provided by the vendor."}, "[1]": {"test_system": "Human Umbilical Vein Endothelial Cells (HUVECS)", "experimental": "The ability of compositions comprising a TKPPR monomer and a TKPPR multimer to inhibit ^125I-VEGF binding to endothelial cells was evaluated using HUVECs."}, "[2]": {"test_system": "Human aortic endothelial cells (HAEC)", "assay": "TKPPR-conjugated fluorescent bead binding to HAEC, static", "format": "cell-based", "procedure": "Human aortic endothelial cells (HAEC) from Biowhittaker were grown as monolayers in EGM-MV medium from Biowhittaker according to the supplier's instructions.\nBriefly, a frozen cryovial of cells (500,000 cells in about 1 mL) was thawed for 2-3 minutes in a 37° C. water bath and cells were seeded into a T-75 flask coated with collagen I (commercially available) containing 15 mL EGM-MV of medium pre-equilibrated with 5% CO2 atmosphere. Cells were incubated in a standard tissue culture incubator at 37° C. HAEC were subcultured for up to 3 additional passages, using the following protocol:\nFor binding studies and characterization, pelleted cells were diluted to a concentration of 16,560 cells per mL, and 0.5 mL was seeded into each well of an 8-well chamber slide (Collagen I-coated, Becton Dickinson) to generate a seeding density of 12,000 cells/cm^2. Cells seeded into chamber slides were used for assays after 7 to 10 days, and were not further propagated.\nTKPPR (see preparation described in the Example 1) was attached to red fluorescent carboxylate-modified FluoSpheres™ (Molecular Probes), which are 2.0 μm microspheres provided at 3.9×10^9 particles/mL of distilled water. 1.0 mg TKPPR was combined with 0.5 mLof 50 mM MES buffer (2-[N-Morpholino]ethanesulfonic acid, (commercially available), pH 6.0 and 0.2 mL FluoSpheres (7.8×10^8 spheres) in a 1.5 mL Eppendorf snap top, polypropylene centrifuge tube and rotated for 30 min at room temperature (RT). Then 2.8 mg EDAC (1-ethyl-3-(3-dimethylaminopropyl)carbodiimide hydrochloride, (commercially available) in 0.025 mL MES was added and the tube was rotated for 2 h at RT. Following the addition of 0.005 mL 1 N NaOH and 5.7 mg glycine in 0.025 mL MES, the tube was rotated for 30 min more at RT. The beads were then washed by employing three cycles of centrifugation at 14,000 rpm (20,800× g) in an Eppendorf 5417R centrifuge for 15 min, discarding the resulting supernatant, and resuspending in D-PBS. Storage was at 4° C. in 0.4 mL DPBS containing 0.05% NaN3 (final bead concentration was about 1.95×10^9/mL).\nFinal bead concentration was 1.95×10^7/mL. […]\nBead binding and localization was assessed at 200× magnification using the same microscopy equipment as described above. […] Finally, the processed images were inverted into black on a white background using Scion Image software (version beta 3b) and the integrated density was measured with the whole field selected.\nThe incubation time was decreased to 15 min on an orbital shaker, and the washes (3) were carried out using D-PBS containing 0.1% Tween 20 (Sigma). […] TKPPR-bead binding was quantitated in three fields, the other bead types were quantitated in one field only. Bound beads were quantitated by manual counting."}, "HAEC": {"test_system": "HAEC", "assay": "TKPPR-bead binding to endothelial cells under flow", "format": "cell-based, human", "settings": "flow 1.91 mL/min, 37° C.", "procedure": "Circular 40 mm diameter glass coverslips (Bioptechs, Cat No. 40-1313-0319) were first derivative by dipping in 3-aminopropyltriethoxysilane (Pierce, Cat No. 80370ZZ), 20% in acetone (HPLC grade, Sigma Aldrich Cat No. 27,072-5), rinsed in acetone, and air-dried. After autoclaving, the derivatized coverslips were placed into 60 mm round, sterile culture dishes, one coverslip per dish. Five mL of a Collagen I solution (Becton Dickinson, Cat No. 40236), 41.6 μg/mL in 20 mM acetic acid (adjusted to pH 6.7 with NaOH), was added to each coverslip-containing dish. After 15 min, 0.25 mL of 11.5 mg/mL bis(sulfosuccinimidyl) suberate (Pierce, Cat No. 21580ZZ) was added to each dish and mixed in by swirling. After a 105-minute incubation, the dishes were drained and 5 mL of sterile TBS (20 mM Tris-HCl, pH 7.5, 140 mM NaCl) was added to each dish. […]\nCoverslips containing confluent HAEC were mounted into a Bioptechs FCS2 parallel plate flow cell mounted on an Olympus IMT-2 inverted microscope. […] Wall shear stress T, in dynes/cm^2, was calculated using the equation (Lawrence et al., Blood 75:227-237, 1990): [formula]\nBead binding of equal numbers of red fluorescent beads conjugated with TKPPR and green fluorescent beads conjugated with glycine was monitored after increasing lengths of perfusion and variable lengths of subsequent washing with the same solution lacking microspheres."}}, "data": [{"compound": "C/C(=N\\O)C(C)(C)NOCCNC(C)(C)/C(CCNC(=O)CCCCCC(=O)NCC(=O)N(CCC(=O)NCC(=O)N(CCC(=O)NCCOCCOCC(=O)N[C@H](C(=O)N[C@@H](CCCCN)C(=O)N1CCC[C@H]1C(=O)N1CCC[C@H]1C(=O)N[C@@H](CCCNC(=N)N)C(=O)O)[C@@H](C)O)CCC(=O)NCCOCCOCC(=O)N[C@H](C(=O)N[C@@H](CCCCN)C(=O)N1CCC[C@H]1C(=O)N1CCC[C@H]1C(=O)N[C@@H](CCCNC(=N)N)C(=O)O)[C@@H](C)O)CCC(=O)NCC(=O)N(CCC(=O)NCCOCCOCC(=O)N[C@H](C(=O)N[C@@H](CCCCN)C(=O)N1CCC[C@H]1C(=O)N1CCC[C@H]1C(=O)N[C@@H](CCCNC(=N)N)C(=O)O)[C@@H](C)O)CCC(=O)NCCOCCOCC(=O)N[C@H](C(=O)N[C@@H](CCCCN)C(=O)N1CCC[C@H]1C(=O)N1CCC[C@H]1C(=O)N[C@@H](CCCNC(=N)N)C(=O)O)[C@@H](C)O)=N/O", "note": "[BRU-326]", "values": [{"measurement": "fold more potent than the monomer", "setting": "NP-1/Fc", "result": "230 to 330", "unit": "fold"}, {"measurement": "IC50", "setting": "NP-1/Fc; 250 pM 125I-VEGF165, 4° C., 2 hours", "result": 130, "unit": "nM"}, {"measurement": "inhibition of 125I-VEGF165 binding to KDR", "setting": "KDR-Fc", "result": "none"}, {"measurement": "Kd", "setting": "Neuropilin-1/Fc", "result": "25 to 50", "unit": "nM"}, {"measurement": "IC50", "setting": "[1]", "result": 10000, "unit": "nM"}]}, {"compound": "GRGDSP", "values": [{"measurement": "Integrated density of bound beads", "setting": "[2]; Experiment 1, 1.95×10^7 beads/mL, 30 min, HAEC monolayer", "result": 28.59, "unit": "arbitrary units"}, {"measurement": "Number of bound beads", "setting": "[2]; Experiment 2, 4.9×10^6 beads/mL, 15 min, manual counting, TKPPR average of three fields, others one field", "result": 2}]}, {"compound": "Glycine", "values": [{"measurement": "Beads bound at 1.53 dynes/cm^2", "setting": "HAEC", "result": 10}]}]}
